For one series, the target named is T1, PPARγ (UniProt P37231).
T1 construct: fused on or other part: GST tag fused to PPARgamma, used for capture on glutathione beads
T1 sequence (P37231 1-505): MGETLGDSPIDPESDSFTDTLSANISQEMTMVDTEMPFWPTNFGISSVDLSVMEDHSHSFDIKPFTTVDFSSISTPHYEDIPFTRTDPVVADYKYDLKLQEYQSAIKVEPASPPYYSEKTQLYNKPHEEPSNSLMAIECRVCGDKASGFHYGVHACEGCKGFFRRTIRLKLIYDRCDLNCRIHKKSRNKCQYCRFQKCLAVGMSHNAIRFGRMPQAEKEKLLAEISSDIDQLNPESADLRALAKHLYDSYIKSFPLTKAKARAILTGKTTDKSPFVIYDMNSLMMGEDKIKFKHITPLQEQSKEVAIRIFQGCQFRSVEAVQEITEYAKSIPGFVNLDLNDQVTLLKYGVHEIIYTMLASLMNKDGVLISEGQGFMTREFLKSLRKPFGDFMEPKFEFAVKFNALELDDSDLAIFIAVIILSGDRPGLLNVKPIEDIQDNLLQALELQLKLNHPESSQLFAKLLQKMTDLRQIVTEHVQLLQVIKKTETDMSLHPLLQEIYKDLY
Description: PPARγ ligand binding assay utilizing [3H]-BRL 49653 as the radioligand. The note with it: concentration required to reduce specific binding by 50%. The source says:
The compounds for use according to the present invention can be evaluated for modulation of the PPARγ receptor using assays such as those described in Jiang, et al., Nature 391:82-86 (1998), Ricote, et al., Nature 391:79-82 (1998) and Lehmann, et al., J. Biol. Chem. 270(12): 12953-12956 (1995). Alternatively, the compounds for use according to the invention can be evaluated for their ability to displace radiolabeled BRL 49653 from a PPARγ-GST fusion protein as follows:
PPAR-γ-GST fusion protein (prepared according to standard procedures), [^3H]-BRL 49653 having 50 Ci/mmol specific activity, Polyfiltronics Unifilter 350 filtration plate and glutathione-Sepharose® beads (from Pharmacia: washed twice with 10× binding buffer in which BSA and DTI can be left out).
Binding buffer (10 mM Tris-HCl, pH 8.0, 50 mM KCl, 10 mM DTT, 0.02% BSA and 0.01% NP-40) is added in 80 microliter amounts to the wells of the filtration plate. The test compound is then added in 10 microliters of DMSO. The PPARy-GST fusion protein and radiolabeled BRL compound are premixed in binding buffer containing 10 mM DTT and added in 10 microliter amounts to the wells of the plate to provide final concentrations of 1 μg/well of PPAR-γ-GST fusion protein and 10 nM [^3H]-BRL 49653 compound. The plate is incubated for 15 minutes. Glutathione-agarose bead is added in 50 μL of binding buffer, and the plate is vigorously shaken for one hour. The plate is washed four times with 200 μL/well of binding buffer (without BSA and DTT). The bottom of the plate is sealed and 200 μL/well of scintillation cocktail is added. The top of the plate is then sealed and the radioactivity is determined. Formulation and Administration of the Compounds (Compositions) for Use According to the Invention

The test system of another series is KK-Ay mice. The series can be described thus: anti-diabetic efficacy in KK-Ay mice (change in serum glucose levels). Format: in vivo. The conditions noted are these: 0.018% (30 mg/kg) dietary admixture in powdered diet, change in serum glucose levels compared to untreated control animals. The protocol:
Selected compounds were administered to KK-Ay mice as a 0.018% (30 mg/kg) dietary admixture in powdered diet and evaluated for anti-diabetic efficacy as described (T. Shibata, K. Matsui, K. Nagao, H. Shinkai, F. Yonemori and K. Wakitani 1999; European Journal of Pharmacology 364:211-219). The change in serum glucose levels compared to untreated control animals is exemplified in Table 39.

As to `O=S(=O)(Nc1cc(Cl)c(Sc2cnc3ccccc3c2)c(Cl)c1)c1ccc(C(F)(F)F)cc1Cl` [Example 87.3], the melting point came to 225.1 °C. At PPARγ, the IC50 is < 1 µM. For the same compound, in the series on KK-Ay mice, the “KKAy Glucose” value is “++ ((++) glucose lowering >20%)”.

On to `Nc1cc(Cl)c(Oc2nc3ccc(Cl)cc3s2)c(Cl)c1` [Example 364, 3,5-dichloro-4-(6-chloro-benzothiazol-2-yloxy)-phenylamine], for which the IC50 at PPARγ is < 10 µM. Also, in the series with KK-Ay mice, the “KKAy Glucose” value is on record as “+ ((+) 10% to 20%)”.

The compound `O=S(=O)(Nc1cc(Cl)c(Oc2nc3ccc(Cl)cc3s2)c(Cl)c1)c1ccc(C(F)(F)F)cc1Cl` [Example 365, 2-Chloro-N-[3,5-dichloro-4-(6-chloro-benzothiazol-2-yloxy)-phenyl]-4-trifluoromethyl-benzenesulfonamide] displayed a melting point of 82 to 84 °C. Moreover, at PPARγ, the IC50 was < 10 µM. The “KKAy Glucose” value with KK-Ay mice was “++ ((++) glucose lowering >20%)”.

The values above are taken from US20050250820A1, “Therapeutic modulation of PPARgamma activity” (Amgen Inc., priority 2004, published 2005).
